Results taken from patent US8604053B2, “TRPV1 antagonists” (AbbVie Inc., priority 2008, dated 2013).

Assays:
[1] = biological target: T1, human TRPV1 receptor (hTRPV1) (Homo sapiens, UniProt Q8NER1); experiment: Capsaicin activation assay (Ca2+ influx, FLIPR); type: cell-based; details: hTRPV1 in 1321N1 cells, 0.05 μM capsaicin
T1 construct: expressed in transfected cells
Method: Dulbecco's modified Eagle medium (D-MEM) (with 4.5 mg/mL glucose) and fetal bovine serum were obtained from Hyclone Laboratories, Inc. (Logan, Utah). Dulbecco's phosphate-buffered saline (D-PBS) (with 1 mg/mL glucose and 3.6 mg/l Na pyruvate, without phenol red), L-glutamine, hygromycin B, and Lipofectamine® were obtained from Life Technologies (Grand Island, N.Y.). G418 sulfate was obtained from Calbiochem-Novabiochem Corp. (San Diego, Calif.). Capsaicin (8-methyl-N-vanillyl-6-nonenamide) was obtained from Sigma-Aldrich, Co. (St. Louis, Mo.). Fluo-4 AM (N-[4-[6-[(acetyloxy)methoxy]-2,7-difluoro-3-oxo-3H-xanthen-9-yl]-2-[2-[2-[bis[2-[(acetyloxy)methoxy]-2-oxyethyl]amino]-5-methyl-phenoxy[ethoxy]phenyl]-N-[2-[(acetyloxy)methoxy]-2-oxyethyl]-glycine, (acetyloxy)methyl ester) was purchased from Molecular Probes (Eugene, Oreg.).
The cDNAs for the human TRPV1 receptor (hTRPV1) were isolated by reverse transcriptase-polymerase chain reaction (RT-PCR) from human small intestine poly A+ RNA supplied by Clontech (Palo Alto, Calif.) using primers designed surrounding the initiation and termination codons identical to the published sequences (Hayes et al. Pain 2000, 88, 205-215). The resulting cDNA PCR products were subcloned into pClneo mammalian expression vector (Promega) and fully sequenced using fluorescent dye-terminator reagents (Prism, Perkin-Elmer Applied Biosystems Division) and a Perkin-Elmer Applied Biosystems Model 373 DNA sequencer or Model 310 genetic analyzer. Expression plasmids encoding the hTRPV1 cDNA were transfected individually into 1321N1 human astrocytoma cells using Lipofectamine®. Forty-eight hours after transfection, the neomycin-resistant cells were selected with growth medium containing 800 μg/mL Geneticin (Gibco BRL). Surviving individual colonies were isolated and screened for TRPV1 receptor activity. Cells expressing recombinant homomeric TRPV1 receptors were maintained at 37° C. in D-MEM containing 4 mM L-glutamine, 300 μg/mL G418 (Cal-biochem) and 10% fetal bovine serum under a humidified 5% CO2 atmosphere.
The functional activity of compounds at the TRPV1 receptor was determined with a Ca^2+ influx assay and measurement of intracellular Ca^2+ levels ([Ca^2+]i). All compounds were tested over an 11-point half-log concentration range. Compound solutions were prepared in D-PBS (4× final concentration), and diluted serially across 96-well v-bottom tissue culture plates using a Biomek 2000 robotic automation workstation (Beckman-Coulter, Inc., Fullerton, Calif.). A 0.2 μM solution of the TRPV1 agonist capsaicin was also prepared in D-PBS. The fluorescent Ca^2+ chelating dye Fluo-4 AM was used as an indicator of the relative levels of [Ca^2+]i in a 96-well format using a Fluorescence Imaging Plate Reader (FLIPR)(Molecular Devices, Sunnyvale, Calif.). Cells were grown to confluency in 96-well black-walled tissue culture plates. Then, prior to the assay, the cells were loaded with 100 μL per well of Fluo-4 AM (2 μM, in D-PBS) for 1-2 hours at 23° C. Washing of the cells was performed to remove extracellular Fluo-4 AM (2×1 mL D-PBS per well), and afterward, the cells were placed in the reading chamber of the FLIPR instrument. 50 μL of the compound solutions were added to the cells at the 10 second time mark of the experimental run. Then, after a 3-minute time delay, 50 μL of the capsaicin solution was added at the, 190 second time mark (0.05 μM final concentration)(final volume=200 μL) to challenge the TRPV1 receptor. Time length of the experimental run was 240 seconds. Fluorescence readings were made at 1 to 5 second intervals over the course of the experimental run. The peak increase in relative fluorescence units (minus baseline) was calculated from the 190 second time mark to the end of the experimental run, and expressed as a percentage of the 0.05 μM capsaicin (control) response. […]

CYP3A4 = biological target: T2, CYP3A4 (Homo sapiens, UniProt P08684); experiment: CYP3A4 inhibition assay; type: in vitro ADME; details: human liver microsomes, substrate BZQ; for inhibition at 25 min, 2.2 µM: pH 7.4, probe 7-benzyloxyquiniline (BZQ), 50 μM final, read-out: CYP3A4 % inh @ 2.2 μM
T2 construct: human liver microsomes (BD Gentest, 450 μL; final concentration: 0.4 mg/mL); tissue BD Gentest; host or cells: human liver microsomes
T2 sequence (P08684 whole entry): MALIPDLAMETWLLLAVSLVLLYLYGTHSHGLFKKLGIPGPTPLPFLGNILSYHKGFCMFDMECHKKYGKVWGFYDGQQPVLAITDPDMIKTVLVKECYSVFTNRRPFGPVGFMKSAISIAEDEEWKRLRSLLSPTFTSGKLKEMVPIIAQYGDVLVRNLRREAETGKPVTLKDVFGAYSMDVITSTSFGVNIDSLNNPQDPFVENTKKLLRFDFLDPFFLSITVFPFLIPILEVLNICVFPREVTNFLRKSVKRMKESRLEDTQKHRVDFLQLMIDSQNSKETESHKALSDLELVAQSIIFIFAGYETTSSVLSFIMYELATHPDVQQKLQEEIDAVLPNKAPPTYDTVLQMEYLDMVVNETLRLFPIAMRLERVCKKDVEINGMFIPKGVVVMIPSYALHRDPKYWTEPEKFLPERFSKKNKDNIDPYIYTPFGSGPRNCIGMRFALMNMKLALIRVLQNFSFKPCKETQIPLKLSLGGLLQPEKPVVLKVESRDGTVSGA
Method: Luciferin-H was used as the substrate for CYP2C9; 3-[2-(N,N-diethyl-N-methylammonium)ethyl]-7-methoxy-4-methylcoumarin (AMMC) was used as the substrate for CYP2D6; 7-benzyloxyquiniline (BZQ) was used as the substrate for CYP3A4.
Pre-Incubation Mixture Preparation for CYP3A4: A pre-incubation mixture was prepared by combining 100 mM phosphate buffer (19.35 mL; pH 7.4), human liver microsomes (BD Gentest, 450 μL; final concentration: 0.4 mg/mL), and 10 mM nicotinamide adenine dinucleotide phosphate in 65.4 mM MgCl2 hexahydrate (225 μL; final concentration: 100 μM and 654 μM, respectively). To this was mixture was added a ‘regeneration’ mixture (225 μL) of 333 mM glucose-6-phosphate and 40 U/mL glucose-6-phosphate dehydrogenase in 5 mM sodium citrate (final concentration: 3.3 mM, 0.4 U/mL, and 0.05 mM, respectively).
Substrate Mixture Preparation for CYP3A4: To a solution of 100 mM phosphate buffer, (2.36 mL, pH 7.4) was added 30 mM BZQ in acetonitrile (40 μL; final solution concentration 0.5 mM, final assay concentration 50 μM).
CYP3A4 Inhibiton Assay: To each well in the assay plate containing varying concentrations of test compound or control compound in DMSO (10 μL), CYP3A4 Pre-Incubation Mixture (90 μL) was added to the wells and the assay plate was pre-incubated for 10 minutes at 37° C., with shaking or rocking. A pre-read of each well was performed at 405 nm and 535 nm extinction/emission. CYP3A4 Substrate Mixture (10 μL) was added to all wells and the assay plate was incubated for an additional […] at 37° C., with shaking or rocking. Final DMSO concentration was 1%. A post-read of each well was then performed at 405 nm and 535 nm extinction/emission.

T1 sequence (Q8NER1 whole entry): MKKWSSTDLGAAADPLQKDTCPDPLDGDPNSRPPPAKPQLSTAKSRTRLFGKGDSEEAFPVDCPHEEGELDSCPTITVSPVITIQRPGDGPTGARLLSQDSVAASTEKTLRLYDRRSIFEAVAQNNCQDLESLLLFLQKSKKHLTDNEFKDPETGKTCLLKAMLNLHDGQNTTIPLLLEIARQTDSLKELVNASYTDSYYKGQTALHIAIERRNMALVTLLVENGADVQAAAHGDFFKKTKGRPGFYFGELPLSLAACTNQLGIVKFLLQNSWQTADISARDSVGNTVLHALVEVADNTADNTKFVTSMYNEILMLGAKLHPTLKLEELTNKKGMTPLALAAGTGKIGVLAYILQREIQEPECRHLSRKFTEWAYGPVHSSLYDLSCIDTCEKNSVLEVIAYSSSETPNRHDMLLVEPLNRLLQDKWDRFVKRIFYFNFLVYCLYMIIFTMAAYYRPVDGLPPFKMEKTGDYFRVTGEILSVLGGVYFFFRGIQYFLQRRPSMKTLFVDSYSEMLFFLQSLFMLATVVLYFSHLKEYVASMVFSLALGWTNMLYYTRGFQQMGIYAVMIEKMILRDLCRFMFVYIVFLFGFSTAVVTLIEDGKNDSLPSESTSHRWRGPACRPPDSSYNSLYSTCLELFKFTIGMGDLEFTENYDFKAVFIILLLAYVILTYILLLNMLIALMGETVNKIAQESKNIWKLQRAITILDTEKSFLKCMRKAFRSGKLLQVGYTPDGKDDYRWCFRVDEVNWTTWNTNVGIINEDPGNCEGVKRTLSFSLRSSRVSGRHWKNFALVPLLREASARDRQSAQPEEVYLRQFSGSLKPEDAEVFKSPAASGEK

| Compound | IC50 [1] | inhibition at 25 min, 2.2 µM (CYP3A4) | CYP3A4 % inh @ 2.2 μM (CYP3A4) |
| --- | --- | --- | --- |
| Cc1cc2c(NC(=O)N[C@@H]3C[C@@](C)(CF)Oc4c(F)cccc43)cccc2cn1 [Example 128, N-[(2S,4R)-8-fluoro-2-(fluoromethyl)-2-methyl-3,4-dihydro-2H-chromen-4-yl]-N′-(3-methylisoquinolin-5-yl)urea] | 300 nM | 0% |  |
| Cc1cc2c(NC(=O)N[C@@H]3CC(CF)(CF)Oc4c(Cl)cccc43)cccc2cn1 [Example 91, N-[(4R)-8-chloro-2,2-bis(fluoromethyl)-3,4-dihydro-2H-chromen-4-yl]-N′-(3-methylisoquinolin-5-yl)urea] | 26 nM | 3.8% |  |
| Cc1cc2c(NC(=O)N[C@@H]3C[C@@](C)(CF)Oc4cc(Cl)ccc43)cccc2cn1 (single isomer, unassigned) [Example 122] | 30 nM | 20% |  |
| N-[(4R)-2,2-diethyl-6-fluoro-3,4-dihydro-2H-chromen-4-yl]-N-(3-methylisoquinolin-5-yl)urea [Example 56] | 15 nM |  | 17% |
| CC1(C)C[C@@H](NC(=O)Nc2cccc3cnccc23)c2cc(F)ccc2O1 [Example 5, N-[(4R)-6-fluoro-2,2-dimethyl-3,4-dihydro-2H-chromen-4-yl]-N′-isoquinolin-5-ylurea] | 23 nM | 61% |  |
| Cc1cc2c(NC(=O)N[C@@H]3CC(C)(C)Oc4c(F)cccc43)cccc2cn1 [Example 119, N-[(4R)-8-fluoro-2,2-dimethyl-3,4-dihydro-2H-chromen-4-yl]-N′-(3-methylisoquinolin-5-yl)urea] | 28 nM | 0% |  |
| CC1(C)C[C@@H](NC(=O)Nc2cccc3cnccc23)c2ccc(F)cc2O1 [Example 23, N-[(4R)-7-fluoro-2,2-dimethyl-3,4-dihydro-2H-chromen-4-yl]-N′-isoquinolin-5-ylurea] | 6 nM | 69% |  |
| Cc1cc2c(NC(=O)N[C@@H]3CC(CF)(CF)Oc4cc(F)ccc43)cccc2cn1 [Example 96, N-[(4R)-7-fluoro-2,2-bis(fluoromethyl)-3,4-dihydro-2H-chromen-4-yl]-N′-(3-methylisoquinolin-5-yl)urea] | 15 nM | 0% |  |
| CCC1(CC)C[C@@H](NC(=O)Nc2cccc3cnc(Cl)cc23)c2cccc(F)c2O1 [Example 81, N-(3-chloroisoquinolin-5-yl)-N′-[(4R)-2,2-diethyl-8-fluoro-3,4-dihydro-2H-chromen-4-yl]urea] | 5 nM | 0% |  |
| Cc1cc2c(NC(=O)N[C@@H]3CC(C)(C)Oc4cc(C(F)(F)F)ccc43)cccc2cn1 [Example 118, N-[(4R)-2,2-dimethyl-7-(trifluoromethyl)-3,4-dihydro-2H-chromen-4-yl]-N′-(3-methylisoquinolin-5-yl)urea] | 19 nM | 0% |  |
| Cc1cc2c(NC(=O)N[C@@H]3C[C@@](C)(C(F)F)Oc4cc(Cl)ccc43)cccc2cn1 (single isomer, unassigned) [Example 124] | 6 nM | 21% |  |
| CCC1(CC)C[C@@H](NC(=O)Nc2cccc3cnccc23)c2cc(F)ccc2O1 [Example 28, N-[(4R)-2,2-diethyl-6-fluoro-3,4-dihydro-2H-chromen-4-yl]-N′-isoquinolin-5-ylurea] | 10 nM | 19% |  |
| Cc1cc2c(NC(=O)N[C@@H]3CC(C)(C)Oc4cc(F)ccc43)c(F)ccc2cn1 [Example 123, N-[(4R)-7-fluoro-2,2-dimethyl-3,4-dihydro-2H-chromen-4-yl]-N′-(6-fluoro-3-methylisoquinolin-5-yl)urea] | 27 nM | 49% |  |
| N-[(4R)-6,8-difluoro-2,2-dimethyl-3,4-dihydro-2H-chromen-4-yl]-N-(3-methylisoquinolin-5-yl)urea [Example 98] | 17 nM |  | 0% |
| CCC1(CC)C[C@@H](NC(=O)Nc2cccc3cnc(C)cc23)c2ccc(Cl)cc2O1 [Example 69, N-[(4R)-7-chloro-2,2-diethyl-3,4-dihydro-2H-chromen-4-yl]-N′-(3-methylisoquinolin-5-yl)urea] | 4 nM | 0% |  |
| Cc1cc2c(NC(=O)N[C@@H]3CC(C)(C)Oc4c(OC(F)(F)F)cccc43)cccc2cn1 [Example 94, N-[(4R)-2,2-dimethyl-8-(trifluoromethoxy)-3,4-dihydro-2H-chromen-4-yl]-N′-(3-methylisoquinolin-5-yl)urea] | 9 nM | 0% |  |
| Cc1cc2c(NC(=O)N[C@@H]3CC(CF)(CF)Oc4c(OC(F)(F)F)cccc43)cccc2cn1 [Example 87, N-[(4R)-2,2-bis(fluoromethyl)-8-(trifluoromethoxy)-3,4-dihydro-2H-chromen-4-yl]-N′-(3-methylisoquinolin-5-yl)urea] | 10 nM | 0% |  |
| Cc1cc2c(NC(=O)N[C@@H]3CC(CF)(CF)Oc4c(F)cc(F)cc43)cccc2cn1 [Example 120, N-[(4R)-6,8-difluoro-2,2-bis(fluoromethyl)-3,4-dihydro-2H-chromen-4-yl]-N′-(3-methylisoquinolin-5-yl)urea] | 43 nM | 25% |  |
| Cc1cc2c(NC(=O)N[C@@H]3CC(CF)(CF)Oc4ccccc43)cccc2cn1 [Example 101, N-[(4R)-2,2-bis(fluoromethyl)-3,4-dihydro-2H-chromen-4-yl]-N′-(3-methylisoquinolin-5-yl)urea] | 91 nM |  |  |
| Cc1cc2c(NC(=O)N[C@@H]3CC(CF)(CF)Oc4cc(Cl)ccc43)cccc2cn1 [Example 84, N-[(4R)-7-chloro-2,2-bis(fluoromethyl)-3,4-dihydro-2H-chromen-4-yl]-N′-(3-methylisoquinolin-5-yl)urea] | 11 nM |  |  |
| Cc1cc2c(NC(=O)N[C@@H]3CC(CF)(CF)Oc4cc(Br)ccc43)cccc2cn1 [Example 102, N-[(4R)-7-bromo-2,2-bis(fluoromethyl)-3,4-dihydro-2H-chromen-4-yl]-N′-(3-methylisoquinolin-5-yl)urea] | 14 nM |  |  |
